Patent publication US20160089343A1 (LSU Health Sciences Center Shreveport, priority 2014, published 2016)
“Also recorded” adds a separate entry of the source.

Tests used:
mTOR pathway markers = experiment: Phase 2 biomarker exploratory trial in HNSCC patients; assay type: in vivo, human
Text: Criteria #1) Biomarker expression in normal tissue should be different from that in high risk tissue. In FIG. 2 we present an analysis of cancer (lanes 5, 6, 11, and 12) and non-cancer (patients with sleep apnea) (lanes 1-4 and 7-10) patient samples. The cancer samples include tumors (T) and histologically tumor-free margins (M). […] Criteria #2) Biomarkers can be detected in small tissue specimens. In our studies we have successfully detected by western blots and even by IHC the various Akt/mTOR markers on samples often as small as 5 mm. Criteria #3) Biomarkers can be expressed in a quantity or pattern that can be correlated with the stage of carcinogenesis.

tumor formation = experiment: Model of minimal residual disease; assay type: in vivo
HNSCC cell lines = HNSCC cell lines screened for sensitivity to curcumin (cell proliferation); assay type: cell-based; conditions: for sensitivity of a variety of cell lines: spread of sensitivity across cell lines
[1] = test system: prostate cancer xenograft; conditions: p.o. gavage 5 mg/day, 5 days/week for 4 weeks; cited from earlier work
[2] = test system: normal fibroblast cell line CCL110; experiment: Cell proliferation in the normal fibroblast cell line; assay type: cell-based; conditions: CCL110, in vitro
[3] = test system: AKT/mTOR pathway, FGF-2 and MMP-9 in HNSCC cell lines; experiment: Biomarkers in HNSCC cell lines (earlier work); assay type: cell-based
Text: Also, identifying a consistent biomarker that can be validated in chemoprevention trials is critical, as the occurrence of cancer as an end point could take years. […] Acquiring the angiogenic phenotype by premalignant cells is the a critical step in carcinogenesis and FGF-2 is one of the most important angiogenic markers. Oral dysplasias are characterized by deregulations (DNA amplification and homozygous deletion) of multiple components of the FGF signaling network. […] GM-CSF promotes proliferation of endothelial progenitor cells, induces endothelial capillary formation via stimulation of MMP expression and activates JAK2/STAT-3 pathway. IL-17, besides its function as immune marker, is also implicated in stimulating angiogenesis.

[4] = test system: Akt/mTOR pathway in SCC066 cells; experiment: Modulation of NFκB and Akt/mTOR pathways, SCC066 cells; assay type: cell-based; conditions: SCC066, 10 μM curcumin, 24 and 48 hours
DMBA-induced oral tumors = conditions: topical 10 μmol curcumin to cheek pouch 3 times/week for 24 weeks; cited from earlier work
[5] = test system: pNFκB or Akt/mTOR in CCL110 cells; experiment: Modulation of NFκB and Akt/mTOR pathways, CCL110 normal fibroblasts; assay type: cell-based; conditions: CCL110, 10 μM curcumin, 24 and 48 hours
[6] = test system: NFκB and Akt/mTOR pathways in SCC40 cells; experiment: Modulation of NFκB and Akt/mTOR pathways, SCC40 cells; assay type: cell-based; conditions: SCC40, 10 μM curcumin
[7] = test system: pAkt and pS6 in SCC40 xenografts; experiment: pAkt and pS6 in SCC40 xenografts of curcumin-treated mice; assay type: in vivo; conditions: mice with SCC40 xenografts treated with curcumin
[8] = test system: NFκB and Akt/mTOR pathways in PCI15a cells; experiment: Modulation of NFκB and Akt/mTOR pathways, PCI15a cells; assay type: cell-based; conditions: 10 μM curcumin
[9] = test system: TPA-induced tumors on mouse skin; conditions: topical 10 μmol curcumin twice weekly; cited from earlier work
tumor cells = experiment: Chemoprevention model: pre-treatment before injecting tumor cells, tumor volume; assay type: in vivo, Balb/c nu/nu mice; conditions: from 4 days before tumor cells, about three weeks
Description: Balb/c nu/nu mice were randomized into treatment groups. […] Tumors were measured over approximately three weeks. […] ANOVA analysis. […] This also points to its role as a chemopreventive agent rather than a therapeutic agent.

CO[C@H]1C[C@@H]2CC[C@@H](C)[C@@](O)(O2)C(=O)C(=O)N2CCCC[C@H]2C(=O)O[C@H]([C@H](C)C[C@@H]2CC[C@@H](OC(=O)C(C)(CO)CO)[C@H](OC)C2)CC(=O)[C@H](C)/C=C(\C)[C@@H](O)[C@@H](OC)C(=O)[C@H](C)C[C@H](C)/C=C/C=C/C=C/1C [CCI-779, temsirolimus]
mTOR pathway markers in tumors and PBMCs (mTOR pathway markers): modulation of these markers
survival (tumor formation): improve survival
tumor formation (tumor formation): inhibit tumor formation

CO[C@H]1C[C@@H]2CC[C@@H](C)[C@@](O)(O2)C(=O)C(=O)N2CCCC[C@H]2C(=O)O[C@H]([C@H](C)C[C@@H]2CC[C@@H](OCCO)[C@H](OC)C2)CC(=O)[C@H](C)/C=C(\C)[C@@H](O)[C@@H](OC)C(=O)[C@H](C)C[C@H](C)/C=C/C=C/C=C/1C [RAD001, everolimus]
sensitivity of a variety of cell lines (HNSCC cell lines): wide range of sensitivity

COc1cc(/C=C/C(=O)CC(=O)/C=C/c2ccc(O)c(OC)c2)ccc1O [curcumin]
inhibition of growth of prostate cancer xenograft [1]: ~50%
dose required to see effects in normal fibroblasts [2]: 20 to 40 µM
FGF-2 expression in HNSCC cells ([3]; p<0.001): downregulation; also recorded: significant inhibition
AKT/mTOR pathway in HNSCC cell lines ([3]; panel of nine HNSCC cell lines): inhibition
MMP-9 in HNSCC cell lines ([3]; panel of nine HNSCC cell lines): downregulation
Akt/mTOR pathway [4]: did not show any modulation
reduction of the number of DMBA-induced oral tumors (DMBA-induced oral tumors): ~40%
pNFκB or Akt/mTOR [5]: no decrease
Akt/mTOR pathway ([6]; 24 and 48 hours): no change
pNFκB ([6]; 48 hours): down-regulation
pAkt in xenografts [7]: significant decrease
pS6 in xenografts [7]: significant decrease
pNFκB ([8]; 24 and 48 hours): no change
pAkt ([8]; 48 hours): down-regulated
pS6 downstream of mTOR ([8]; 48 hours): down-regulated
inhibition of the number of tumors per mouse [9]: 98%
tumor volume versus control (vehicle treated) (tumor cells; 10 mg curcumin): no significant difference
tumor volume versus control (vehicle treated) (tumor cells; 15 mg curcumin, p=0.007, mixed ANOVA): statistically significant difference
growth inhibitory effect (HNSCC cell lines; all 10 HNSCC cell lines tested to date): growth inhibitory effects
effect on cell proliferation (HNSCC cell lines; all HNSCC cell lines, 10 μM curcumin): inhibition of cell proliferation
anti-proliferative effect (HNSCC cell lines; panel of nine HNSCC cell lines, earlier work): robust anti-proliferative effects
sensitivity of a variety of cell lines (HNSCC cell lines): consistently sensitive
growth inhibitory effect (HNSCC cell lines; three HNSCC cell lines (PCI15a, SCC40, SCC066), 10 μM, 48 hours): significant growth inhibitory effects
curcumin concentration giving consistent inhibition of cell proliferation (HNSCC cell lines; variety of HNSCC cell lines, in vitro): less than 10 μM
